“Also recorded” adds a separate entry of the source.
Legend:
[1] = test system: cathepsin L; set-up: method as in PMID 12437121; details: cited from earlier work
[2] = not told; cited from earlier work
[3] = test system: Hs578T 3D MAME cultures; experiment: Live-cell proteolysis assay (DQ-collagen IV) in 3D MAME cultures, Hs578T; assay type: cell-based, human
Description: (§1) Proteolytic cleavage of DQ-collagen IV substrate (Invitrogen, Carlsbad, CA, USA) by live TNBC cells was imaged in real time and quantified as previously described. Briefly, glass coverslips were coated with 50 μl of 16.4 mg/ml Cultrex^TM containing 25 μg/ml DQ-collagen IV and incubated for 15 min at 37°C to solidify. TNBC cells (1.0 x 10^4) were seeded onto coated glass coverslips and incubated for 60 min. Medium containing 2% Cultrex^TM was added to the cells. The sample was added every 48 h. […] Where indicated, assays were performed in the presence of CA074 and CA074Me (5 μM each) (Peptides International, Louisville, KY, USA), compound 1 or compound 2. For experiments with the caged inhibitor, cells were exposed to dark (no irradiation) and light (irradiation at 250 W, 395–750 nm) conditions for 45 min with a tungsten halogen lamp and H2O filter on separate plates. After 4 days of culture, optical sections through the entire depth of the 3D structures were acquired on a confocal microscope and, reconstructed in 3D using Volocity software. At the time of imaging cells were stained with CellTracker Orange and nuclei with Hoechst 33342. Volocity software was used to determine cellular boundaries in each confocal slice and generate a “cytoplasmic mask” as well as to count nuclei. The intensity of DQ-collagen IV degradation fragments per cell was quantified in the entire 3D volume. Degradation fragments were segmented into those present inside or surrounding the cells by using image arithmetic as we have previously described in detail.

[4] = test system: recombinant human CTSB expressed in baculovirus; set-up: method as in PMID 11741472; details: cited from earlier work
[5] = test system: MDA-MB-231 3D MAME cultures; experiment: Live-cell proteolysis assay (DQ-collagen IV) in 3D MAME cultures, MDA-MB-231; assay type: cell-based, human
Description: as §1

[6] = target: T1, CTSB activity in MDA-MB-231 cell lysates (Homo sapiens, UniProt P07858); experiment: Inhibition of cellular cathepsin B activity in MDA-MB-231 cell lysates (Z-Arg-Arg-AMC); assay type: biochemical; details: uncaged compound 1; MDA-MB-231 lysate; read-out: IC50
T1 construct: endogenous in cells; host or cells: MDA-MB-231 (ATCC) cell lysate
Description: (§2) TNBC cell lines were originally purchased from American Type Culture Collection (Rockville, MD, USA) and authenticated using the STR PowerPlex 16 system (Promega). Cells were cultured in basal medium supplemented with 10% fetal bovine serum (MDA-MB-231, DMEM; Hs578T, DMEM + 10 μg/ml bovine insulin). To prepare cell lysates, cells were grown on 100 mm dishes to ~80% confluency, washed twice with PBS (phosphate buffered saline), scraped and lysed in SME buffer (250 mM sucrose, 25 mM MES, 1 mM EDTA, pH 6.5, and 0.1% Triton X-100) and then sonicated on ice three times for 10 sec each. CTSB activity was measured as previously described. Briefly, 50 μl of cell lysate was incubated with 300 μl of activator buffer (5 mM EDTA, 10 mM DTT (pH 5.2) at 37°C during 15 min. The sample (1 μl) was added to 100 μl of the activator buffer containing cell lysate and the reaction mixtures were conducted during 45 min under dark (no irradiation) and light (irradiation at 250 W, 395–750 nm) conditions for 45 min with a tungsten halogen lamp and H2O filter on separate plates as described above. The experiments were carried out in triplicate (on 96-well flat bottom black plates) at pH 6.0.

[7] = Solubility (statement); assay type: physicochemical
[8] = target: T2, CTSB activity in Hs578T cell lysates (Homo sapiens, UniProt P07858); experiment: Inhibition of cellular cathepsin B activity in Hs578T cell lysates (Z-Arg-Arg-AMC); assay type: biochemical; details: uncaged compound 1; Hs578T lysate; read-out: IC50
T2 construct: endogenous in cells; host or cells: Hs578T (ATCC) cell lysate
Description: as §2

[9] = target: T3, CTSB purified from human liver (Homo sapiens, UniProt P07858); experiment: Cathepsin B activity assay with purified enzyme (Z-Arg-Arg-AMC); assay type: biochemical; details: uncaged compound 1; CTSB 10 nM, substrate 150 μM; read-out: IC50
T3 construct: CTSB purified from human liver was purchased from Athens Research & Technology; purchased Athens Research & Technology (Athens, GA, USA); host or cells: human liver (tissue-purified)
Description: CTSB purified from human liver was purchased from Athens Research & Technology (Athens, GA, USA). The enzyme activity was determined from kinetic measurements performed by fluorimetric detection of the hydrolysis product AMC at 37°C for 30 min at one-minute intervals using a Tecan SpectraFluor Plus plate-reader. The excitation and emission wavelengths were 360 and 485 nm, respectively. The fluorescent substrate Z-Arg-Arg-AMC (Bachem, Torrance, CA, USA) was used at a final concentration of 150 μM.
The enzyme was activated for 15 minutes with activator buffer (100 μl) containing 5 mM EDTA, 10 mM DTT (pH 5.2) at 37°C. The sample (1 μl) was added and the reaction mixtures were conducted during 45 min under dark (no irradiation) and light (irradiation at 250 W, 395–750 nm) conditions with a tungsten halogen lamp and H2O filter on separate plates. For the experiments under dark conditions, room lights were off and in addition the plate was covered with aluminum foil (light protection); the other plate was exposed to visible light for the same time period. The irradiation wavelength was selected by placing a 395 long-pass filter between the lamp and the sample, along with a 10 cm water cell to absorb infrared light. After photolysis, the reaction was initiated by addition of 200 μl of assay buffer (0.6 mM CaCl2, 0.6 mM MgCl2, 25 mM piperazin-N-N‘-bis[2-ethanosulfonic acid] (disodium salt)), pH 7.3 containing 150 μM Z-Arg-Arg-AMC substrate solution. Enzyme concentration was 10 nM. The experiments were carried out in triplicate in 96-well flat bottom black plates at pH 6.0. Enzyme activities are expressed as a percentage, with 100% equal to activity in the absence of inhibitor. IC50 values were determined by plotting percent activity vs. log (inhibitor concentration).

For `CCCNC(=O)[C@H]1O[C@@H]1C(=O)N[C@H](C(=O)N1CCC[C@H]1C(=O)OC)[C@@H](C)CC` [CA074Me], the “inhibition of cathepsin L” value [1] is given as “inhibits” and the cell permeability [2] is given as “cell permeable”.
For `CCCNC(=O)[C@H]1O[C@@H]1C(=O)N[C@H](C(=O)N1CCC[C@H]1C(=O)O)[C@@H](C)CC` [CA074], the “inhibition of cathepsin L” value [1] is listed as “not” and the cell permeability [2] is listed as “non-cell permeable”.
For `Cc1cccc(C[C@H](NC(=O)c2ccc(Cl)c(Cl)c2)C(=O)NCC#N)c1` [compound 1, (S)-3,4-dichloro-N-(1-((cyanomethyl)amino)-1-oxo-3-(m-tolyl)propan-2-yl)benzamide], the “total degradation of DQ-collagen IV” value ([3]; 4 days of culture, concentration of 1 not given) is listed as “significantly less degradation of DQ-collagen IV; also recorded: significant reductions”, the “pericellular proteolysis (DQ-collagen IV)” value ([3]; 4 days, concentration of 1 not given) is listed as “significant reductions” and the “inhibition of recombinant human CTSB” value [4] is listed as “potent, selective and reversible inhibitor”. For the same molecule, the “total degradation of DQ-collagen IV” value ([5]; MDA-MB-231, 4 days of culture, concentration of 1 not given) was “significantly less degradation of DQ-collagen IV; also recorded: significant reductions”, the “pericellular proteolysis (DQ-collagen IV)” value ([5]; MDA-MB-231, 4 days, concentration of 1 not given) was “significant reductions” and the IC50 [6] was 1540 nM. For the same molecule, the “solubility in H2O” value [7] was “low solubility”, the IC50 [8] was 910 nM and the IC50 [9] was 330 nM.
In the case of `CC#N.CC#N.F[P-](F)(F)(F)(F)F.F[P-](F)(F)(F)(F)F.[Ru+2].c1ccc(-c2ccccn2)nc1.c1ccc(-c2ccccn2)nc1` [compound 3, cis-[Ru(bpy)2(MeCN)2](PF6)2, reference compound], the “inhibition of proteolysis (DQ-collagen IV)” value ([3]; 1 μM, light vs. dark conditions, 4 days) is reported as “did not inhibit proteolysis” and the “inhibition of proteolysis (DQ-collagen IV)” value ([5]; MDA-MB-231, 1 μM, light vs. dark conditions, 4 days) is reported as “did not inhibit proteolysis”.
